Source: US11104648B2, “Pyrazole derivative” (Zhejiang Research Institute of Chemical Industry Co., Ltd., priority 2018, dated 2021)
Where two headings read alike, the source gives them in different places.

Legend:
Type in all cases: in vivo
[1] = test system: Tetranychus cinnabarinus Nymphs; experiment: Activity assay of Tetranychus cinnabarinus nymphs (spray on broad bean leaves)
In short: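 Mortality, judged as no response to gentle touch, was scored 48 h after spraying Tetranychus cinnabarinus nymphs on broad bean leaves (eggs from females removed after 24 h). Test solutions: DMF-dissolved compound, ≤10% DMF, in 1‰ Tween 80; 26±2° C., 70%–80% RH, 16 h light; triplicate, blank control.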

[2] = test system: adult Tetranychus cinnabarinus; experiment: Activity assay of adult Tetranychus cinnabarinus (whole-plant spray on bean seedlings); details: 48 h, read-out: adult mite-killing activity; for pest or weed control at 1.25 µg/mL: concentration 1.25 mg/L
In short: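 Whole plants sprayed after adult mite inoculation and initial census, using compound dissolved in DMF and made up with 1‰ Tween 80 water (DMF not above 10%). Mortality derived from survivor counts at 48 h after treatment. Each treatment run in triplicate.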

[3] = test system: Eggs of Tetranychus Cinnabarinus; experiment: Activity assay of eggs of Tetranychus cinnabarinus (spray method, ovicidal); details: Tetranychus cinnabarinus, read-out: ovicidal activity; for pest or weed control at 2 µg/mL: concentration 2 mg/L
In short: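 Ovicidal spray test: compound dissolved in DMF, diluted with 1‰ Tween 80 (DMF ≤10%), sprayed on eggs laid during 24 h by females on broad bean leaves. Culture at 26±2° C, 70–80% RH, 16 h photoperiod; non-hatched eggs scored as dead when blank control hatched; three repeats.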

[4] = 48 h, concentration 2.5 mg/L, read-out: nymph-killing activity
[5] = concentration 5 mg/L, spray, non-incubated eggs counted as dead
[6] = 48 h, concentration 2 mg/L, read-out: nymph-killing activity
[7] = 48 h, read-out: nymph-killing activity
[8] = concentration 2.5 mg/L, 48 h, read-out: nymph-killing activity

| Compound | pest or weed control at 2.5 µg/mL [1, 4] [%] | pest or weed control at 2.5 µg/mL ([2]; concentration 2.5 mg/L) [%] | pest or weed control at 5 µg/mL [3, 5] [%] | also measured |
| --- | --- | --- | --- | --- |
| CCn1nc(C)c(Cl)c1/C(OCOC(=O)COC)=C(\C#N)c1ccc(C(C)(C)C)cc1 [Compound 308] | ≥ 95 | ≥ 90 | ≥ 90 |  |
| CCn1nc(C)c(Cl)c1/C(OCOC(=O)C1CC1)=C(\C#N)c1ccc(C(C)(C)C)cc1 [Compound 309] | ≥ 95 | ≥ 90 | ≥ 90 | pest or weed control at 2 µg/mL [1, 6]: ≥ 90%; pest or weed control at 1.25 µg/mL [2]: ≥ 90%; pest or weed control at 2 µg/mL ([3]; spray): ≥ 90% |
| CCn1nc(C)c(Cl)c1/C(OCOC(=O)CSC)=C(\C#N)c1ccc(C(C)(C)C)cc1 [Compound 310] | ≥ 95 | ≥ 90 | ≥ 90 |  |
| CCn1nc(C)c(Cl)c1/C(OCOC(=O)C1CCCCC1)=C(\C#N)c1ccc(C(C)(C)C)cc1 [Compound 311] | ≥ 95 | ≥ 90 | ≥ 90 |  |
| CCn1nc(C)c(Cl)c1/C(OCOC(=O)CF)=C(\C#N)c1ccc(C(C)(C)C)cc1 [Compound 312] |  |  |  | pest or weed control at 2.5 µg/mL [1, 7]: ≥ 95%; pest or weed control at 2.5 µg/mL [2]: ≥ 90%; pest or weed control at 5 µg/mL [3]: ≥ 90% |
| CCn1nc(C)c(Cl)c1/C(OCOC(=O)C(F)(F)F)=C(\C#N)c1ccc(C(C)(C)C)cc1 [Compound 313] | ≥ 95 | ≥ 90 | ≥ 90 |  |
| CCn1nc(C)c(Cl)c1/C(OCOC(=O)c1ccccc1)=C(\C#N)c1ccc(C(C)(C)C)cc1 [Compound 314] | ≥ 95 | ≥ 90 | ≥ 90 |  |
| CCn1nc(C)c(Cl)c1/C(OCOC(=O)Cc1ccccc1)=C(\C#N)c1ccc(C(C)(C)C)cc1 [Compound 315] |  | ≥ 90 | ≥ 90 | pest or weed control at 2.5 µg/mL [1, 8]: ≥ 95% |
| CCn1nc(C)c(Cl)c1/C(OCOC(=O)C(C)(C)CC)=C(\C#N)c1ccc(C(C)(C)C)cc1 [Compound 316] | ≥ 95 | ≥ 90 | ≥ 90 |  |
| C=CC(=O)OCO/C(=C(/C#N)c1ccc(C(C)(C)C)cc1)c1c(Cl)c(C)nn1CC [Compound 317] | ≥ 95 | ≥ 90 | ≥ 90 |  |
| CCn1nc(C)c(Cl)c1/C(OC(C)OC(C)=O)=C(\C#N)c1ccc(C(C)(C)C)cc1 (stereo not drawn) [Compound 326] | ≥ 95 | ≥ 90 | ≥ 90 | pest or weed control at 2 µg/mL [1, 6]: ≥ 90%; pest or weed control at 1.25 µg/mL [2]: ≥ 90%; pest or weed control at 2 µg/mL ([3]; spray): ≥ 90% |
| CCC(=O)OC(C)O/C(=C(/C#N)c1ccc(C(C)(C)C)cc1)c1c(Cl)c(C)nn1CC (stereo not drawn) [Compound 327] | ≥ 95 | ≥ 90 | ≥ 90 | pest or weed control at 2 µg/mL [1, 6]: ≥ 90%; pest or weed control at 1.25 µg/mL [2]: ≥ 90%; pest or weed control at 2 µg/mL ([3]; spray): ≥ 90% |
| CCCC(=O)OC(C)O/C(=C(/C#N)c1ccc(C(C)(C)C)cc1)c1c(Cl)c(C)nn1CC (stereo not drawn) [Compound 328] | ≥ 95 | ≥ 90 | ≥ 90 |  |
| CCn1nc(C)c(Cl)c1/C(OC(C)OC(=O)C(C)C)=C(\C#N)c1ccc(C(C)(C)C)cc1 (stereo not drawn) [Compound 329] | ≥ 95 | ≥ 90 | ≥ 90 |  |
| CCn1nc(C)c(Cl)c1/C(OC(C)OC(=O)C(C)(C)C)=C(\C#N)c1ccc(C(C)(C)C)cc1 (stereo not drawn) [Compound 330] | ≥ 95 | ≥ 90 | ≥ 90 |  |
| CCCCC(=O)OC(C)O/C(=C(/C#N)c1ccc(C(C)(C)C)cc1)c1c(Cl)c(C)nn1CC (stereo not drawn) [Compound 331] | ≥ 95 | ≥ 90 | ≥ 90 |  |
| CCn1nc(C)c(Cl)c1/C(OC(C)OC(=O)CC(C)C)=C(\C#N)c1ccc(C(C)(C)C)cc1 (stereo not drawn) [Compound 332] | ≥ 95 | ≥ 90 | ≥ 90 |  |

| Compound | pest or weed control at 2.5 µg/mL [1, 4] [%] | pest or weed control at 2.5 µg/mL ([2]; concentration 2.5 mg/L) [%] | pest or weed control at 5 µg/mL [3, 5] [%] | also measured |
| --- | --- | --- | --- | --- |
| CCn1nc(C)c(Cl)c1/C(OC(C)OC(=O)COC)=C(\C#N)c1ccc(C(C)(C)C)cc1 (stereo not drawn) [Compound 333] | ≥ 95 | ≥ 90 | ≥ 90 |  |
| CCn1nc(C)c(Cl)c1/C(OC(C)OC(=O)C1CC1)=C(\C#N)c1ccc(C(C)(C)C)cc1 (stereo not drawn) [Compound 334] | ≥ 95 | ≥ 90 | ≥ 90 |  |
| CCn1nc(C)c(Cl)c1/C(OC(C)OC(=O)CSC)=C(\C#N)c1ccc(C(C)(C)C)cc1 (stereo not drawn) [Compound 335] | ≥ 95 | ≥ 90 | ≥ 90 |  |
| CCn1nc(C)c(Cl)c1/C(OC(C)OC(=O)C1CCCCC1)=C(\C#N)c1ccc(C(C)(C)C)cc1 (stereo not drawn) [Compound 336] | ≥ 95 | ≥ 90 | ≥ 90 |  |
| CCn1nc(C)c(Cl)c1/C(OC(C)OC(=O)CF)=C(\C#N)c1ccc(C(C)(C)C)cc1 (stereo not drawn) [Compound 337] |  |  |  | pest or weed control at 2.5 µg/mL [1, 7]: ≥ 95%; pest or weed control at 2.5 µg/mL [2]: ≥ 90%; pest or weed control at 5 µg/mL [3]: ≥ 90% |
| CCn1nc(C)c(Cl)c1/C(OC(C)OC(=O)C(F)(F)F)=C(\C#N)c1ccc(C(C)(C)C)cc1 (stereo not drawn) [Compound 338] | ≥ 95 | ≥ 90 | ≥ 90 |  |
| CCn1nc(C)c(Cl)c1/C(OC(C)OC(=O)c1ccccc1)=C(\C#N)c1ccc(C(C)(C)C)cc1 (stereo not drawn) [Compound 339] | ≥ 95 | ≥ 90 | ≥ 90 |  |
| CCn1nc(C)c(Cl)c1/C(OC(C)OC(=O)Cc1ccccc1)=C(\C#N)c1ccc(C(C)(C)C)cc1 (stereo not drawn) [Compound 340] |  | ≥ 90 | ≥ 90 | pest or weed control at 2.5 µg/mL [1, 8]: ≥ 95% |
| CCn1nc(C)c(Cl)c1/C(OC(C)OC(=O)C(C)(C)CC)=C(\C#N)c1ccc(C(C)(C)C)cc1 (stereo not drawn) [Compound 341] | ≥ 95 | ≥ 90 | ≥ 90 |  |
| C=CC(=O)OC(C)O/C(=C(/C#N)c1ccc(C(C)(C)C)cc1)c1c(Cl)c(C)nn1CC (stereo not drawn) [Compound 342] | ≥ 95 | ≥ 90 | ≥ 90 |  |
| CCn1nc(C)c(C)c1/C(OCOC(C)=O)=C(\C#N)c1ccc(C(C)(C)C)cc1 [Compound 376] | ≥ 95 | ≥ 90 | ≥ 90 |  |
| CCC(=O)OCO/C(=C(/C#N)c1ccc(C(C)(C)C)cc1)c1c(C)c(C)nn1CC [Compound 377] | ≥ 95 | ≥ 90 | ≥ 90 |  |
| CCCC(=O)OCO/C(=C(/C#N)c1ccc(C(C)(C)C)cc1)c1c(C)c(C)nn1CC [Compound 378] | ≥ 95 | ≥ 90 | ≥ 90 |  |
| CCn1nc(C)c(C)c1/C(OCOC(=O)C(C)C)=C(\C#N)c1ccc(C(C)(C)C)cc1 [Compound 379] | ≥ 95 | ≥ 90 | ≥ 90 |  |
| CCn1nc(C)c(C)c1/C(OCOC(=O)C(C)(C)C)=C(\C#N)c1ccc(C(C)(C)C)cc1 [Compound 380] | ≥ 95 | ≥ 90 | ≥ 90 |  |
| CCCCC(=O)OCO/C(=C(/C#N)c1ccc(C(C)(C)C)cc1)c1c(C)c(C)nn1CC [Compound 381] | ≥ 95 | ≥ 90 | ≥ 90 |  |
